± gives the expanded uncertainty stated by the source.
Conditions: for electrical conductivity / viscosity / mass density: 100 kPa; for electrical conductivity / viscosity / mass density / surface tension liquid-gas: Liquid; for electrical conductivity: Alternating current cell with electrodes; for viscosity: Capillary tube (Ostwald / Ubbelohde) method; for mass density: Vibrating tube method; for surface tension liquid-gas: Maximal bubble pressure; for Glass transition temperature: DSC

Row | Structure (SMILES) | electrical conductivity (293.15 K) | viscosity (293.15 K) | mass density (293.15 K) | surface tension liquid-gas (293.15 K) | electrical conductivity (298.15 K) | viscosity (298.15 K) | mass density (298.15 K) | surface tension liquid-gas (298.15 K) | electrical conductivity (303.15 K) | viscosity (303.15 K) | mass density (303.15 K) | surface tension liquid-gas (303.15 K) | electrical conductivity (308.15 K) | viscosity (308.15 K) | mass density (308.15 K) | surface tension liquid-gas (308.15 K) | electrical conductivity (313.15 K) | viscosity (313.15 K) | mass density (313.15 K) | surface tension liquid-gas (313.15 K) | further results
1 | CCCC(=O)[O-].CCCC[NH3+] [n-butylammonium butanoate] | 0.031 ± 0.003 S/m | 1112 ± 120 mPa·s | 907.81 ± 1.8 kg/m3 | 25.7 ± 0.3 mN/m | 0.038 ± 0.004 S/m | 812.6 ± 89 mPa·s | 904.94 ± 1.8 kg/m3 | 25.4 ± 0.3 mN/m | 0.047 ± 0.005 S/m | 599.38 ± 64 mPa·s | 902.06 ± 1.8 kg/m3 | 25.1 ± 0.3 mN/m | 0.059 ± 0.006 S/m | 448.37 ± 47 mPa·s | 899.18 ± 1.8 kg/m3 | 24.8 ± 0.3 mN/m | 0.073 ± 0.007 S/m | 338.47 ± 35 mPa·s | 896.28 ± 1.8 kg/m3 | 24.5 ± 0.3 mN/m | electrical conductivity (318.15 K): 0.089 ± 0.009 S/m; viscosity (318.15 K): 262.05 ± 27 mPa·s; mass density (318.15 K): 893.32 ± 1.8 kg/m3; surface tension liquid-gas (318.15 K): 24.2 ± 0.3 mN/m; electrical conductivity (323.15 K): 0.109 ± 0.011 S/m; viscosity (323.15 K): 199.16 ± 20 mPa·s; mass density (323.15 K): 890.57 ± 1.8 kg/m3; surface tension liquid-gas (323.15 K): 23.9 ± 0.3 mN/m; electrical conductivity (328.15 K): 0.132 ± 0.013 S/m; viscosity (328.15 K): 154.43 ± 16 mPa·s; mass density (328.15 K): 887.56 ± 1.8 kg/m3; surface tension liquid-gas (328.15 K): 23.6 ± 0.3 mN/m; electrical conductivity (333.15 K): 0.159 ± 0.016 S/m; viscosity (333.15 K): 126.18 ± 13 mPa·s; mass density (333.15 K): 884.61 ± 1.8 kg/m3; surface tension liquid-gas (333.15 K): 23.4 ± 0.3 mN/m; Glass transition temperature: -81.80 ± 2.1 °C
2 | CC(=O)O.CCCCN [butylammonium acetate] | 0.051 ± 0.005 S/m | 771.6 ± 84 mPa·s | 959.02 ± 1.9 kg/m3 | 31.5 ± 0.3 mN/m | 0.065 ± 0.007 S/m | 546.33 ± 58 mPa·s | 955.95 ± 1.9 kg/m3 | 31.1 ± 0.3 mN/m | 0.082 ± 0.008 S/m | 397.17 ± 42 mPa·s | 952.87 ± 1.9 kg/m3 | 30.8 ± 0.3 mN/m | 0.103 ± 0.01 S/m | 294.59 ± 31 mPa·s | 949.87 ± 1.9 kg/m3 | 30.5 ± 0.3 mN/m | 0.128 ± 0.013 S/m | 222.26 ± 23 mPa·s | 946.81 ± 1.9 kg/m3 | 30.1 ± 0.3 mN/m | electrical conductivity (318.15 K): 0.159 ± 0.016 S/m; viscosity (318.15 K): 163.91 ± 17 mPa·s; mass density (318.15 K): 943.73 ± 1.9 kg/m3; surface tension liquid-gas (318.15 K): 29.8 ± 0.3 mN/m; electrical conductivity (323.15 K): 0.197 ± 0.02 S/m; viscosity (323.15 K): 126.15 ± 13 mPa·s; mass density (323.15 K): 940.83 ± 1.9 kg/m3; surface tension liquid-gas (323.15 K): 29.5 ± 0.3 mN/m; electrical conductivity (328.15 K): 0.244 ± 0.024 S/m; viscosity (328.15 K): 95.03 ± 9.6 mPa·s; mass density (328.15 K): 937.8 ± 1.9 kg/m3; surface tension liquid-gas (328.15 K): 29.1 ± 0.3 mN/m; electrical conductivity (333.15 K): 0.299 ± 0.03 S/m; viscosity (333.15 K): 77.93 ± 7.8 mPa·s; mass density (333.15 K): 934.68 ± 1.9 kg/m3; surface tension liquid-gas (333.15 K): 28.8 ± 0.3 mN/m; Glass transition temperature: -98.90 ± 2.1 °C
3 | CCCC[NH3+].O=C[O-] [butylammonium formate] | 0.287 ± 0.029 S/m | 160.19 ± 16 mPa·s | 976.96 ± 2 kg/m3 | 33.8 ± 0.3 mN/m | 0.332 ± 0.033 S/m | 120.82 ± 12 mPa·s | 973.8 ± 2 kg/m3 | 33.3 ± 0.3 mN/m | 0.384 ± 0.038 S/m | 92.68 ± 9.3 mPa·s | 970.66 ± 1.9 kg/m3 | 32.9 ± 0.3 mN/m | 0.443 ± 0.044 S/m | 72.01 ± 7.2 mPa·s | 967.48 ± 1.9 kg/m3 | 32.4 ± 0.3 mN/m | 0.511 ± 0.051 S/m | 57.07 ± 5.7 mPa·s | 964.4 ± 1.9 kg/m3 | 32 ± 0.3 mN/m | electrical conductivity (318.15 K): 0.588 ± 0.059 S/m; viscosity (318.15 K): 45.61 ± 4.6 mPa·s; mass density (318.15 K): 961.21 ± 1.9 kg/m3; surface tension liquid-gas (318.15 K): 31.5 ± 0.3 mN/m; electrical conductivity (323.15 K): 0.67 ± 0.07 S/m; viscosity (323.15 K): 37.22 ± 3.7 mPa·s; mass density (323.15 K): 958.02 ± 1.9 kg/m3; surface tension liquid-gas (323.15 K): 31.1 ± 0.3 mN/m; electrical conductivity (328.15 K): 0.761 ± 0.076 S/m; viscosity (328.15 K): 30.62 ± 3.1 mPa·s; mass density (328.15 K): 954.95 ± 1.9 kg/m3; surface tension liquid-gas (328.15 K): 30.6 ± 0.3 mN/m; electrical conductivity (333.15 K): 0.873 ± 0.087 S/m; viscosity (333.15 K): 25.39 ± 2.5 mPa·s; mass density (333.15 K): 951.82 ± 1.9 kg/m3; surface tension liquid-gas (333.15 K): 30.2 ± 0.3 mN/m; Glass transition temperature: -108.50 ± 2.1 °C
4 | CCC(=O)[O-].CCCC[NH3+] [butylammonium propanoate] | 0.049 ± 0.005 S/m | 916.56 ± 100 mPa·s | 933.95 ± 1.9 kg/m3 | 28.1 ± 0.3 mN/m | 0.06 ± 0.006 S/m | 669.24 ± 72 mPa·s | 930.84 ± 1.9 kg/m3 | 27.8 ± 0.3 mN/m | 0.074 ± 0.007 S/m | 494.64 ± 53 mPa·s | 927.79 ± 1.9 kg/m3 | 27.5 ± 0.3 mN/m | 0.091 ± 0.009 S/m | 371.06 ± 39 mPa·s | 924.86 ± 1.9 kg/m3 | 27.1 ± 0.3 mN/m | 0.111 ± 0.011 S/m | 280.47 ± 29 mPa·s | 921.76 ± 1.9 kg/m3 | 26.8 ± 0.3 mN/m | electrical conductivity (318.15 K): 0.135 ± 0.014 S/m; viscosity (318.15 K): 211.76 ± 22 mPa·s; mass density (318.15 K): 918.77 ± 1.9 kg/m3; surface tension liquid-gas (318.15 K): 26.5 ± 0.3 mN/m; electrical conductivity (323.15 K): 0.164 ± 0.016 S/m; viscosity (323.15 K): 162.68 ± 17 mPa·s; mass density (323.15 K): 915.69 ± 1.8 kg/m3; surface tension liquid-gas (323.15 K): 26.2 ± 0.3 mN/m; electrical conductivity (328.15 K): 0.196 ± 0.02 S/m; viscosity (328.15 K): 128.4 ± 13 mPa·s; mass density (328.15 K): 912.7 ± 1.8 kg/m3; surface tension liquid-gas (328.15 K): 25.9 ± 0.3 mN/m; electrical conductivity (333.15 K): 0.234 ± 0.023 S/m; viscosity (333.15 K): 99.35 ± 10 mPa·s; mass density (333.15 K): 909.66 ± 1.8 kg/m3; surface tension liquid-gas (333.15 K): 25.6 ± 0.3 mN/m; Glass transition temperature: -89.40 ± 2.1 °C

— the NIST ThermoML archive (doi:10.1021/acs.jced.8b00583)
